Columns and labels:
[1] = Equilibrium solubility testing of salt forms; assay type: physicochemical
Method: Solubility testing was performed on several salt forms and results for free compound (mg) in media (ml) (represented as mg/ml) at equilibrium solubility are shown in Table 4. SIF refers to simulated intestinal fluid.

[2] = Dynamic vapor sorption (DVS) testing of salt forms; assay type: physicochemical
Method: Dynamic vapor sorption (DVS) testing was performed on several salt forms and sorption and desorption results under various relative humidity (RH) conditions are shown in Table 3.

Q: Which results are given for `CO.CP(=O)(O)C(C(=O)N/C=C/c1ccc(F)c(F)c1)c1csc2ccc(Cl)cc12` (centres unmarked) [Form A]?
A: Equilibrium solubility, free compound (mg) in media (ml) ([1]; media 0.1N HCL, pH 1.50 (A), 1.40 (Compound 1b), 1.51 (B1)): 5.7 mg/mL; Equilibrium solubility, free compound (mg) in media (ml) ([1]; media 0.1N NaOH, pH 4.47 (A), 11.78 (Compound 1b), 8.88 (B1)): 46.5 mg/mL; Equilibrium solubility, free compound (mg) in media (ml) ([1]; media SIF (simulated intestinal fluid), pH 4.78 (A), 7.85 (Compound 1b), 7.65 (B1)): 18.7 mg/mL; Sorption ([2]; 0-30% RH): 0-30% RH: 0.34%; Sorption ([2]; 0-90% RH): 0-90% RH: 2.94%; Desorption ([2]; 30-0% RH): 30-0% RH: 7.14%; Sorption ([2]; 30-90% RH): 30-90% RH: 2.60%; Desorption ([2]; 90-30% RH): 90-30% RH: 1.48%

Q: What does the source list for `CP(=O)(O)C(C(=O)N/C=C/c1ccc(F)c(F)c1)c1csc2ccc(Cl)cc12.NC(CO)(CO)CO` (centres unmarked) [Form B1]?
A: Equilibrium solubility, free compound (mg) in media (ml) ([1]; pH 1.5): 1.7 mg/mL; Equilibrium solubility, free compound (mg) in media (ml) ([1]; pH 4.47): 42.2 mg/mL; Equilibrium solubility, free compound (mg) in media (ml) ([1]; pH 4.78): 14.6 mg/mL

Q: What does the source list for `CP(=O)(O)C(C(=O)N/C=C/c1ccc(F)c(F)c1)c1csc2ccc(Cl)cc12.NC(CO)(CO)CO` (centres unmarked) [Form B2]?
A: Sorption ([2]; 0-90% RH): 0-90% RH: 2.085%; Desorption ([2]; 90-0% RH): 90-0% RH: 2.231%

Q: For `CNC[C@H](O)[C@@H](O)[C@H](O)[C@H](O)CO.CP(=O)(O)C(C(=O)N/C=C/c1ccc(F)c(F)c1)c1csc2ccc(Cl)cc12` (centres unmarked) [Form C2], which “Solubility (remained in solution; equilibrium solubility could not be determined)” value ([1]; media not stated) is on record?
A: > 232 mg/mL

Q: What about the Sorption ([2]; 0-80% RH) of the same compound?
A: 0-80% RH: 3.68%

Q: And the Sorption ([2]; 0-90% RH)?
A: 0-90% RH: 5.52%

Q: What about the Desorption ([2]; 10-0% RH) of the same compound?
A: 10-0% RH: 2.75%

Q: And the Sorption ([2]; 80-90% RH)?
A: 80-90% RH: 1.84%

Q: And the Desorption ([2]; 90-0% RH)?
A: 90-0% RH: 6.66%

Q: And the Desorption ([2]; 90-10% RH)?
A: 90-10% RH: 3.91%

Q: For `CP(=O)([O-])C(C(=O)N/C=C/c1ccc(F)c(F)c1)c1csc2ccc(Cl)cc12.[K+]` (centres unmarked) [Form F1], which Sorption ([2]; 0-60% RH) is on record?
A: 0-60% RH: 0.00%

Q: And the Sorption ([2]; 0-90% RH)?
A: 0-90% RH: 11.35%

Q: And the Sorption ([2]; 60-70% RH)?
A: 60-70% RH: 0.30%

Q: And the Sorption ([2]; 70-80% RH)?
A: 70-80% RH: 2.46%

Q: And the Sorption ([2]; 80-90% RH)?
A: 80-90% RH: 8.59%

Q: And the Desorption ([2]; 90-0% RH)?
A: 90-0% RH: 16.81%

Q: For `CP(=O)([O-])C(C(=O)N/C=C/c1ccc(F)c(F)c1)c1csc2ccc(Cl)cc12.[K+]` (centres unmarked) [Form F2], which Sorption ([2]; 0-60% RH) is on record?
A: 0-60% RH: 0.00%

Q: What about the Sorption ([2]; 0-90% RH) of the same compound?
A: 0-90% RH: 11.35%

Q: What about the Sorption ([2]; 60-70% RH) of the same compound?
A: 60-70% RH: 0.30%

Q: And the Sorption ([2]; 70-80% RH)?
A: 70-80% RH: 2.46%

Q: What about the Sorption ([2]; 80-90% RH) of the same compound?
A: 80-90% RH: 8.59%

Q: What about the Desorption ([2]; 90-0% RH) of the same compound?
A: 90-0% RH: 16.81%

Q: For `CP(=O)([O-])C(C(=O)N/C=C/c1ccc(F)c(F)c1)c1csc2ccc(Cl)cc12.[K+]` (centres unmarked) [Form F3], which Sorption ([2]; 0-60% RH) is on record?
A: 0-60% RH: 0.00%

Q: And the Sorption ([2]; 0-90% RH)?
A: 0-90% RH: 11.35%

Q: And the Sorption ([2]; 60-70% RH)?
A: 60-70% RH: 0.30%

Q: And the Sorption ([2]; 70-80% RH)?
A: 70-80% RH: 2.46%

Q: What about the Sorption ([2]; 80-90% RH) of the same compound?
A: 80-90% RH: 8.59%

Q: And the Desorption ([2]; 90-0% RH)?
A: 90-0% RH: 16.81%

Reference: patent US20080097110A1, “Salt forms of substituted benzothienyl compounds” (priority 2006, published 2008)
